Ki and IC50 data for 24 compounds are collected here from US9714232B2, “Substituted piperazine compounds and methods of use thereof” (Sunshine Lake Pharma Co., Ltd., priority 2013, dated 2017).

The target of one experiment is human 5-HT1A receptor (Homo sapiens (Human), UniProt P08908). Kind of experiment: Affinity for human 5-HT1A receptor ([3H]8-OH-DPAT binding, HEK-293 cell homogenates). Particulars: 0.3 nM [3H]8-OH-DPAT, human HEK-293 cell homogenates, 22° C., 60 minutes; Ki from IC50 by ChengPrusoff equation. As for the experimental part:
Human HEK-293 cell homogenates (36 μg protein) were incubated at 22° C. for 60 minutes with 0.3 nM [^3H]8-0H-DPAT (Perkin-Elmer) in the absence or presence of the test compound in a buffer solution containing 50 mM Tris-HCl (pH 7.4), 10 mM MgSO4, 0.5 mM EDTA and 2 μg/ml aprotinine.
The non-specific binding value was determined by incubating the same mixture in the presence of 10 μM 8-OH-DPAT, which was used as the standard reference compound and tested in each experiment at several concentrations to obtain a competition curve.
Following the incubation, the samples were filtered rapidly under vacuum through glass fiber filter (GF/B, Packard) presoaked with 0.3% PEI and rinsed several times with ice-cold 50 mM Tris-HCl using a 96-sample cell harvester (Unifilter, Packard). The filters were dried and the retained radioactivity was measured in a scintillation counter (Topcount, Packard) using a scintillation cocktail (Microscint 0, Packard). The experimental results were expressed as a percent inhibition of the control radioligand specific binding.
Binding assay of [^3H] 8-OH-DPAT (0.3 nM) with 5-HT1A receptor in human HEK-293 cell was tested by scintillation proximity assay of membrane.

Experiment [1] addresses serotonin transporter in rat synaptosome (Rattus norvegicus (Rat), UniProt P31652). Kind of experiment: Inhibitory effect on [3H]5-HT uptake in rat synaptosome. The class given is biochemical. The settings on record: rat brain synaptosomes, 0.1 μCi [3H]5-HT, 37° C., 15 minutes. Here is the method:
The synaptosomes (150 μg) prepared from a rat brain were incubated at 37° C. for 15 minutes with 0.1 μCi [^3H]5-HT in the absence or presence of the test compound or the reference compound in a buffer solution containing 106.2 mM NaCl, 4.5 mM KCl, 2.25 mM MgSO4, 1.08 mM NaH2PO4, 22.5 mM NaHCO3, 9.9 mM glucose, 9 μM EGTA and 45 μM ascorbic acid (pH 7.4).
The basal control activity was determined by incubating the same mixture at 4° C. for 15 minutes in the presence of 10 μM imipramine to block the uptake of 5-HT, which was taken as the standard reference compound and tested in each experiment at several concentrations to obtain an inhibition curve.
Following the incubation, the samples were filtered rapidly under vacuum through glass fiber filters (GF/B, Packard) and rinsed twice with an ice-cold incubation buffer using a 96-sample cell harvester (Unifilter, Packard) to eliminate free [^3H]5-HT. The filters were dried and the retained radioactivity was measured in a scintillation counter (Topcount, Packard) using a scintillation cocktail (Microscint 0, Packard). The experimental results were expressed as a percent inhibition of the control uptake of [^3H]5-HT.
Inhibition of serotonin transporter in rat synaptosome was measured by the concentrations of [^3H]5-HT.

human 5-HT1A receptor, sequence (P08908 whole entry): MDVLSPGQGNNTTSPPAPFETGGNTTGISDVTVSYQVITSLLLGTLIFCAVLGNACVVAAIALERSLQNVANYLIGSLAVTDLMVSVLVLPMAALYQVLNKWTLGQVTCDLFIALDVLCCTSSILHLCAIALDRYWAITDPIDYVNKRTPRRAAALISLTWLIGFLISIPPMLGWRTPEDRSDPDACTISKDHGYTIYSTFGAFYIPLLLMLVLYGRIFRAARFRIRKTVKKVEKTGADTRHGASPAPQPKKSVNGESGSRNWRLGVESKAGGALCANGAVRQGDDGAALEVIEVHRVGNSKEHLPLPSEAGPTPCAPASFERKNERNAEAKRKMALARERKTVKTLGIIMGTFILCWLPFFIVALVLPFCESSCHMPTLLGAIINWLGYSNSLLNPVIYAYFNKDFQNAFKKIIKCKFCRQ
serotonin transporter in rat synaptosome, sequence (P31652 whole entry): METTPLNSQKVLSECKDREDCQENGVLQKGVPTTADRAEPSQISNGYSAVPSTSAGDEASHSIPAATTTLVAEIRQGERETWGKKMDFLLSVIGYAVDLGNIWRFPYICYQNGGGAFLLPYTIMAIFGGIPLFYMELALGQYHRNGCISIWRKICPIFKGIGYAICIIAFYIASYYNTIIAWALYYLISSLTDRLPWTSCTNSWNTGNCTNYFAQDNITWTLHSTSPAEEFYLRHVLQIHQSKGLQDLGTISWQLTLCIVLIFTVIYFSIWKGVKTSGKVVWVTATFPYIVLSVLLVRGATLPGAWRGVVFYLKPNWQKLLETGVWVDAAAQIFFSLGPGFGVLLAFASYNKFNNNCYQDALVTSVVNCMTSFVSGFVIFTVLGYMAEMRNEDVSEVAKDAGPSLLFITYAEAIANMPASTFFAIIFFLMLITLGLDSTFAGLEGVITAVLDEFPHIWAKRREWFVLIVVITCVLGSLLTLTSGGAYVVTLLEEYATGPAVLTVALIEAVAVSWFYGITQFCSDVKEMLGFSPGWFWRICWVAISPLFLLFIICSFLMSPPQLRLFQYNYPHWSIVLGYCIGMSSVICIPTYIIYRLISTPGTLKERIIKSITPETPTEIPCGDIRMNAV

In general, Ki refers to the dissociation constant of the complex between target and ligand, obtained from inhibition or displacement. Lower therefore signals higher affinity. As usually defined, the IC50 is the concentration at which inhibition is half-maximal. In the case of `O=C1CCCCN1c1ccc(N2CCN(CCCCc3c[nH]c4ccc(F)cc34)CC2)cc1` [Example 1, 1-(4-(4-(4-(5-fluoro-1H-indol-3-yl)butyl)piperazin-1-yl)phenyl)piperidin-2-one], the Ki on human 5-HT1A receptor stood at 2.5 nM. In experiment [1], this compound came in with an IC50 of 4.3 nM.
The like results for `N#Cc1ccc2[nH]cc(CCCCN3CCN(c4ccc(N5CCCCC5=O)cc4)CC3)c2c1` [Example 2, 3-(4-(4-(4-(2-oxopiperidin-1-yl)phenyl)piperazin-1-yl)butyl)-1H-indole-5-carbonitrile] were, in that order, 1.9 nM and 1.8 nM.
The like results for `O=C1CCCCN1c1ccc(N2CCN(CCCc3c[nH]c4ccc(F)cc34)CC2)cc1` [Example 3, 1-(4-(4-(3-(5-fluoro-1H-indol-3-yl)propyl)piperazin-1-yl)phenyl)piperidin-2-one] were, in that order, 3.2 nM and 4.2 nM.
`N#Cc1ccc2[nH]cc(CCCN3CCN(c4ccc(N5CCCCC5=O)cc4)CC3)c2c1` [Example 4, 3-(3-(4-(4-(2-oxopiperidin-1-yl)phenyl)piperazin-1-yl)propyl)-1H-indole-5-carbonitrile] displayed a Ki at human 5-HT1A receptor of 1.2 nM. The IC50 in experiment [1] stood at 8.5 nM.
The corresponding values for `O=C1COCCN1c1ccc(N2CCN(CCCCc3c[nH]c4ccc(F)cc34)CC2)cc1` [Example 5, 4-(4-(4-(4-(5-fluoro-1H-indol-3-yl)butyl)piperazin-1-yl)phenyl)morpholin-3-one] are 3.1 nM and 6.3 nM.
The corresponding values for `N#Cc1ccc2[nH]cc(CCCCN3CCN(c4ccc(N5CCOCC5=O)cc4)CC3)c2c1` [Example 6, 3-(4-(4-(4-(3-oxomorpholino)phenyl)piperazin-1-yl)butyl)-1H-indole-5-carbonitrile] are 2.1 nM and 2.2 nM.
The like results for `O=C1COCCN1c1ccc(N2CCN(CCCc3c[nH]c4ccc(F)cc34)CC2)cc1` [Example 7, 4-(4-(4-(3-(5-fluoro-1H-indol-3-yl)propyl)piperazin-1-yl)phenyl)morpholin-3-one] were, in that order, 6.4 nM and 7.3 nM.
At human 5-HT1A receptor, `N#Cc1ccc2[nH]cc(CCCN3CCN(c4ccc(N5CCOCC5=O)cc4)CC3)c2c1` [Example 8, 3-(3-(4-(4-(3-oxomorpholino)phenyl)piperazin-1-yl)propyl)-1H-indole-5-carbonitrile] showed a Ki of 3.2 nM. In experiment [1], this compound returned an IC50 of 10 nM.
The like results for `N#Cc1ccc2[nH]cc(CCCCN3CCN(c4ccc(-n5ccccc5=O)cc4)CC3)c2c1` [Example 9, 3-(4-(4-(4-(2-oxopyridin-1(2H)-yl)phenyl)piperazin-1-yl)butyl)-1H-indole-5-carbonitrile] were, in that order, 0.23 nM and 8 nM.
`O=c1ccccn1-c1ccc(N2CCN(CCCCc3c[nH]c4ccc(F)cc34)CC2)cc1` [Example 10, 1-(4-(4-(4-(5-fluoro-1H-indol-3-yl)butyl)piperazin-1-yl)phenyl)pyridin-2(1H)-one] displayed a Ki at human 5-HT1A receptor of 0.19 nM. In experiment [1], this compound showed an IC50 of 1.6 nM.
The corresponding values for `N#Cc1ccc2[nH]cc(CCCN3CCN(c4ccc(-n5ccccc5=O)cc4)CC3)c2c1` [Example 11, 3-(3-(4-(4-(2-oxopyridin-1(2H)-yl)phenyl)piperazin-1-yl)propyl)-1H-indole-5-carbonitrile] are 1.2 nM and 0.98 nM.
The corresponding values for `O=c1ccccn1-c1ccc(N2CCN(CCCc3c[nH]c4ccc(F)cc34)CC2)cc1` [Example 12, 1-(4-(4-(3-(5-fluoro-1H-indol-3-yl)propyl)piperazin-1-yl)phenyl)pyridin-2(1H)-one] are 0.87 nM and 7.1 nM.
The corresponding values for `N#Cc1ccc2[nH]cc(CCN3CCN(c4ccc(-n5ccccc5=O)cc4)CC3)c2c1` [Example 13, 3-(2-(4-(4-(2-oxopyridin-1(2H)-yl)phenyl)piperazin-1-yl)ethyl)-1H-indole-5-carbonitrile] are 54 nM and 2.6 nM.
For `N#Cc1ccc2[nH]cc(CCCCCN3CCN(c4ccc(-n5ccccc5=O)cc4)CC3)c2c1` [Example 14, 3-(5-(4-(4-(2-oxopyridin-1(2H)-yl)phenyl)piperazin-1-yl)pentyl)-1H-indole-5-carbonitrile], the Ki at human 5-HT1A receptor was 4.1 nM. The compound also registered a half-maximal inhibitory concentration (IC50) in experiment [1] of 1.4 nM.
As for `N#Cc1ccc2[nH]cc(C(O)CCCN3CCN(c4ccc(-n5ccccc5=O)cc4)CC3)c2c1` (centres unmarked) [Example 15, 3-(1-hydroxy-4-(4-(4-(2-oxopyridin-1(2H)-yl)phenyl)piperazin-1-yl)butyl)-1H-indole-5-carbonitrile], in experiment [1], the IC50 amounted to 330 nM.
Still for that read-out and setting: the value for `N#Cc1ccc2[nH]cc(C(O)CCN3CCN(c4ccc(-n5ccccc5=O)cc4)CC3)c2c1` (centres unmarked) [Example 16, 3-(1-hydroxy-3-(4-(4-(2-oxopyridin-1(2H)-yl)phenyl)piperazin-1-yl)propyl)-1H-indole-5-carbonitrile] was 170 nM.
Consider `Cc1ccn(-c2ccc(N3CCN(CCCCc4c[nH]c5ccc(C#N)cc45)CC3)cc2)c(=O)c1` [Example 17, 3-(4-(4-(4-(4-methyl-2-oxopyridin-1(2H)-yl)phenyl)piperazin-1-yl)butyl)-1H-indole-5-carbonitrile], for which the Ki on human 5-HT1A receptor was 0.48 nM. In addition, the IC50 in experiment [1] came out at 1.7 nM.
The corresponding values for `Cc1ccn(-c2ccc(N3CCN(CCCc4c[nH]c5ccc(C#N)cc45)CC3)cc2)c(=O)c1` [Example 18, 3-(3-(4-(4-(4-methyl-2-oxopyridin-1(2H)-yl)phenyl)piperazin-1-yl)propyl)-1H-indole-5-carbonitrile] are 0.89 nM and 7.5 nM.
The corresponding values for `Cc1ccn(-c2ccc(N3CCN(CCc4c[nH]c5ccc(C#N)cc45)CC3)cc2)c(=O)c1` [Example 19, 3-(2-(4-(4-(4-methyl-2-oxopyridin-1(2H)-yl)phenyl)piperazin-1-yl)ethyl)-1H-indole-5-carbonitrile] are 33 nM and 2 nM.
The like results for `Cc1ccn(-c2ccc(N3CCN(CCCCCc4c[nH]c5ccc(C#N)cc45)CC3)cc2)c(=O)c1` [Example 20, 3-(5-(4-(4-(4-methyl-2-oxopyridin-1(2H)-yl)phenyl)piperazin-1-yl)pentyl)-1H-indole-5-carbonitrile] were, in that order, 4.7 nM and 3.6 nM.
With `COc1ccn(-c2ccc(N3CCN(CCCCc4c[nH]c5ccc(C#N)cc45)CC3)cc2)c(=O)c1` [Example 21, 3-(4-(4-(4-(4-methoxy-2-oxopyridin-1(2H)-yl)phenyl)piperazin-1-yl)butyl)-1H-indole-5-carbonitrile], the inhibition constant Ki on human 5-HT1A receptor was 1.2 nM. The compound also yielded an IC50 in experiment [1] of 7.4 nM.
The corresponding values for `COc1ccn(-c2ccc(N3CCN(CCCc4c[nH]c5ccc(C#N)cc45)CC3)cc2)c(=O)c1` [Example 22, 3-(3-(4-(4-(4-methoxy-2-oxopyridin-1(2H)-yl)phenyl)piperazin-1-yl)propyl)-1H-indole-5-carbonitrile] are 0.61 nM and 1.8 nM.
`COc1ccn(-c2ccc(N3CCN(CCc4c[nH]c5ccc(C#N)cc45)CC3)cc2)c(=O)c1` [Example 23, 3-(2-(4-(4-(4-methoxy-2-oxopyridin-1(2H)-yl)phenyl)piperazin-1-yl)ethyl)-1H-indole-5-carbonitrile] gave an IC50 in experiment [1] of 12 nM.
The same measure, in the same setting: the figure for `N#Cc1ccc2[nH]cc(CCCCN3CCN(c4ccc(-n5ccc6ccccc6c5=O)cc4)CC3)c2c1` [Example 29, 3-(4-(4-(4-(1-oxoisoquinolin-2(1H)-yl)phenyl)piperazin-1-yl)butyl)-1H-indole-5-carbonitrile] is 10 nM.
